Test results reported in the pKa sets of Baltruschat and Czodrowski (2020).

Conditions: basic group

Question: Which pKa does the source give for `N[C@H](C(=O)[O-])[C@H](O)C(=O)[O-]` here?
Answer: 8.75

Question: Which pKa does the source give for `Nc1cc(/C=C/c2ccccc2)nc(/C=C/c2ccccc2)c1` here?
Answer: 8.6

Question: With `COc1ccc(-c2cnc(-c3ccc(C)cc3)o2)cc1` as the molecule, how does the pKa read?
Answer: 1.26

Question: Which pKa does the source give for `CCN1CC[C@]2(C)c3cc(O)ccc3C[C@H]1[C@H]2C` here?
Answer: 9.42

Question: For `COc1ccc2c3c1O[C@H]1CCC[C@H]4[C@@H]([C@H]2O)N(C)CC[C@]314`, which pKa is on record?
Answer: 7.71

Question: Which pKa does the source give for `CN(C)CCNCCN(C)C` here?
Answer: 9.59

Question: Which pKa does the source give for `CC1CNCc2ccccc2OCCOc2ccccc2CN1` (stereo not drawn) here?
Answer: 9.41

Question: For `Cn1ccnc1-c1ccccn1`, which pKa is on record?
Answer: 5.7

Question: With `Oc1ccccc1/C=N/c1ncc2nc[nH]c2n1` as the molecule, how does the pKa read?
Answer: 3.38

Question: For `CCNCC[NH2+]CC`, which pKa is on record?
Answer: 7.7

Question: With `CCNNC` as the molecule, how does the pKa read?
Answer: 7.5

Question: With `CN1C[C@H](CO)C[C@H]2c3cccc4[nH]cc(c34)C[C@@H]21` as the molecule, how does the pKa read?
Answer: 8.84

Question: For `Oc1ccccc1CN1CCCNCCC[NH2+]CCC1`, which pKa is on record?
Answer: 6.64

Question: With `CN(C(=O)c1ccccc1)c1ccccn1` as the molecule, how does the pKa read?
Answer: 1.44

Question: For `O=C([O-])CNCCc1nnn[n-]1`, which pKa is on record?
Answer: 9.23

Question: Which pKa does the source give for `O=C(c1ccccc1)n1cnc2ccccc21` here?
Answer: 1.8

Question: For `CCCN(C)N(C)CCC`, which pKa is on record?
Answer: 7.05

Question: Which pKa does the source give for `O=C1C[C@H]2OCC=C3CN4CC[C@@]56c7ccccc7N1[C@@H]5[C@@H]2[C@@H]3C[C@@H]46` here?
Answer: 8.18

Question: For `CC(=O)C1C(=O)c2ccccc2C1=O`, which pKa is on record?
Answer: 2.88

Question: Which pKa does the source give for `c1nc2cc3c(cc2[nH]1)CCCC3` here?
Answer: 5.98

Question: For `N/C(=[NH+]\O)c1ccccc1N`, which pKa is on record?
Answer: 2.2

Question: Which pKa does the source give for `CN(C)c1ccc(C2CN3CCC2CC3)cc1` (stereo not drawn) here?
Answer: 10.3

Question: For `CN(C)/C=N/c1ccccc1Cl`, which pKa is on record?
Answer: 6.85

Question: Which pKa does the source give for `NCC[n+]1ccc2ccccc2c1` here?
Answer: 6.85

Question: With `CC/C(N)=N/O` as the molecule, how does the pKa read?
Answer: 5.95

Question: Which pKa does the source give for `CN(C)CCC(c1ccccc1)c1ccccn1` (stereo not drawn) here?
Answer: 9.29

Question: With `Oc1ccccc1CN1CCOCC1` as the molecule, how does the pKa read?
Answer: 7.71

Question: For `C[N+](C)(C)CCN`, which pKa is on record?
Answer: 7.34

Question: For `Cc1ccccc1/C(=N/CCC[NH+](C)C)c1ccccc1`, which pKa is on record?
Answer: 4.29

Question: For `NCCNCCCO`, which pKa is on record?
Answer: 9.67

Question: For `CC1=CCN2CC[C@@H](O)[C@@H]12`, which pKa is on record?
Answer: 9.6

Question: Which pKa does the source give for `CCCCN(CCCC)c1nnc(-c2ccccc2)cc1C` here?
Answer: 4.88

Question: For `c1ccc(NC2CCCC2)cc1`, which pKa is on record?
Answer: 5.3

Question: For `O=[N+]([O-])c1cccc2nc3ccccc3c(NCCO)c12`, which pKa is on record?
Answer: 7.2

Question: With `Cc1ccc(N)c(C)c1` as the molecule, how does the pKa read?
Answer: 4.75

Question: With `CCCCN(CC1CO1)CC1CO1` (stereo not drawn) as the molecule, how does the pKa read?
Answer: 6.91

Question: Which pKa does the source give for `Cn1c(N)nc2nc[nH]c2c1=O` here?
Answer: 3.2

Question: With `CSCc1ccccn1` as the molecule, how does the pKa read?
Answer: 5.4

Question: With `Nc1cccc2cncnc12` as the molecule, how does the pKa read?
Answer: 2.81

Question: For `N/C(=N\O)c1ccccc1N`, which pKa is on record?
Answer: 4.5

Question: For `CC(C)N(C)C`, which pKa is on record?
Answer: 10.3

Question: With `Cc1ccc(-c2cnc(-c3ccc(C)cc3)o2)cc1` as the molecule, how does the pKa read?
Answer: 1.12

Question: With `CN1CC[C@]23c4c5ccc(O)c4O[C@H]2[C@@H](O)CC[C@H]3[C@H]1C5` as the molecule, how does the pKa read?
Answer: 8.94

Question: Which pKa does the source give for `CCNc1cc[nH+]c([O-])n1` here?
Answer: 4.58

Question: With `CC(N)CC1CCCCC1` (stereo not drawn) as the molecule, how does the pKa read?
Answer: 10.1

Question: Which pKa does the source give for `CCCCC(CC)CNc1ncnc2[nH]ncc12` (stereo not drawn) here?
Answer: 4.6

Question: Which pKa does the source give for `Clc1ccnc2c1ccc1c(Cl)ccnc12` here?
Answer: 3.03

Question: With `OCCCCc1ccccn1` as the molecule, how does the pKa read?
Answer: 5.83

Question: For `Nc1nc([S-])[nH+]c([O-])c1C1=CCCCC1`, which pKa is on record?
Answer: 7.11

Question: With `COc1ccc(OC)c2c1nc(C)n2C` as the molecule, how does the pKa read?
Answer: 6.12

Question: For `CCCCN`, which pKa is on record?
Answer: 10.7

Question: Which pKa does the source give for `Oc1cccc(C2NCCS2)c1` (stereo not drawn) here?
Answer: 5.2

Question: Which pKa does the source give for `C=C(C)C(=O)OCCNCC(C)C` here?
Answer: 8.91

Question: For `CN(C)Cc1cc(C[NH+](C)C)cc(O)c1O`, which pKa is on record?
Answer: 7.22

Question: With `O/N=C(/Cc1ccccc1)NO` as the molecule, how does the pKa read?
Answer: 4.25

Question: Which pKa does the source give for `Cc1nc2cc(N)ccc2n1C` here?
Answer: 7

Question: Which pKa does the source give for `CCN(CC)C(C)C(=O)Nc1c(C)cccc1C` (stereo not drawn) here?
Answer: 8.11

Question: With `COc1ccc(N)cc1Br` as the molecule, how does the pKa read?
Answer: 4.09

Question: With `Cc1ccc(S(=O)C(C)(C)C)cc1` (stereo not drawn) as the molecule, how does the pKa read?
Answer: -2.2

Question: With `CC(=N\O)/C(CN(C)C)=N\O` as the molecule, how does the pKa read?
Answer: 8.4

Question: For `Cc1cc(C)cc(C(=N)c2ccccc2)c1`, which pKa is on record?
Answer: 6.82

Question: With `Cc1n[nH]cc1Cl` as the molecule, how does the pKa read?
Answer: 1.4

Question: For `CC(C)(C)/C(N)=N/O`, which pKa is on record?
Answer: 5.8

Question: For `CCN(C)N(C)CC`, which pKa is on record?
Answer: 6.8

Question: Which pKa does the source give for `C[n+]1cnccc1[O-]` here?
Answer: 1.84

Question: With `CC(C)(C)N1CC(O[Si](C)(C)C)C1` as the molecule, how does the pKa read?
Answer: 9.24

Question: With `Cc1cccc(CO)n1` as the molecule, how does the pKa read?
Answer: 5.2

Question: With `C[NH2+]CCCNc1c2ccccc2nc2cccc([N+](=O)[O-])c12` as the molecule, how does the pKa read?
Answer: 6.2

Question: Which pKa does the source give for `c1cnc2c(c1)ccc1cccnc12` here?
Answer: 4.96

Question: Which pKa does the source give for `c1cncc(-c2ccc[nH+]c2)c1` here?
Answer: 3

Question: For `CN1C[C@@H](C(=O)[O-])C[C@H]2c3cccc4[nH]cc(c34)C[C@@H]21`, which pKa is on record?
Answer: 8.47

Question: Which pKa does the source give for `[O-]c1c(Cl)cc(Cl)c(Cl)c1CN1CCOCC1` here?
Answer: 8.83

Question: With `CC(N)Cc1ccc2c(c1)OCO2` (stereo not drawn) as the molecule, how does the pKa read?
Answer: 9.67

Question: For `CC(C)N(CCC(c1ccccc1)c1ccccn1)C(C)C` (stereo not drawn), which pKa is on record?
Answer: 10.5

Question: For `Nc1ccc(F)cc1`, which pKa is on record?
Answer: 4.64

Question: Which pKa does the source give for `Nc1ccc2ccnnc2c1` here?
Answer: 4.85

Question: With `O=[N+]([O-])c1cccc(Nc2ccccc2)c1` as the molecule, how does the pKa read?
Answer: -1.27

Question: Which pKa does the source give for `C=CCNc1ccccc1` here?
Answer: 4.17

Question: With `OCc1nc2ncncc2[nH]1` as the molecule, how does the pKa read?
Answer: 2.62

Question: With `O=[N+]([O-])c1ccc(-c2ncc(-c3ccccc3)o2)cc1` as the molecule, how does the pKa read?
Answer: -0.61

Question: Which pKa does the source give for `N#Cc1cncc2ccccc12` here?
Answer: 2.04

Question: With `Brc1c[nH]cn1` as the molecule, how does the pKa read?
Answer: 3.8

Question: With `CCCCCCn1ccnc1` as the molecule, how does the pKa read?
Answer: 7.2

Question: For `Cn1cnc2c1C(=O)c1ncnc([O-])c1C2=O`, which pKa is on record?
Answer: 6.09

Question: For `N[C@@H]1C[C@H]2CCCC[C@@H]2C[C@@H]1[NH3+]`, which pKa is on record?
Answer: 6.36

Question: Which pKa does the source give for `C(=C/c1ccncc1)/c1ccncc1` here?
Answer: 5.57

Question: Which pKa does the source give for `CCCCCCCN(CCCCCCC)c1ccccc1` here?
Answer: 3.33

Question: Which pKa does the source give for `[O-]c1c(Cl)cc(Cl)cc1CN1CCOCC1` here?
Answer: 8.85
